The values below come from patent US9388149B2, “Disubstituted 3,4-diamino-3-cyclobutene-1,2-dione compounds for use in the treatment of chemokine-mediated diseases” (GALDERMA RESEARCH & DEVELOPMENT, priority 2011, dated 2016).

For one series, the target named is CXCR3 (Homo sapiens (Human), UniProt P49682). As to the kind of experiment: Calcium flux on Chem-1 cells expressing the chemokine receptor (FLIPR TETRA), antagonist mode. The conditions noted are these: IC50 CXCR3, antagonist activity, reference agonist at AC80. (Calcium flux is commonly read through the fluorescence of an indicator in the cells.)
Chain of CXCR3 (P49682 whole entry): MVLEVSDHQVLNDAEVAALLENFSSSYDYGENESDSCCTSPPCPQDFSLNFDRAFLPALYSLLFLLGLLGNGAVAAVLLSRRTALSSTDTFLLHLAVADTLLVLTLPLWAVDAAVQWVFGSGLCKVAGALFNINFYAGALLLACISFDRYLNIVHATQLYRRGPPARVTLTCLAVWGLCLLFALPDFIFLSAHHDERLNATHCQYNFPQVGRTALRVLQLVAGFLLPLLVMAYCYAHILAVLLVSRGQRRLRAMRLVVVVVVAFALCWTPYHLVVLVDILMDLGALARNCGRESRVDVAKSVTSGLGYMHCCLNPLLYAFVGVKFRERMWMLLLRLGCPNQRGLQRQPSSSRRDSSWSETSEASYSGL
The next series has as its target CCR6 (Homo sapiens (Human), UniProt P51684). The series is described as above. The following applies: antagonist activity, reference agonist at AC80. It is filed as cell-based.
A short description of series [1]: Metabolic stabilities in hepatocytes. The conditions noted are these: compound 1 μM, sampling up to 24 hours; for Half-life time: human hepatocytes; for half-life at 1 μM: human, hepatocytes, read-out: Half-life time. The format is in vitro ADME. As to the method: The human hepatocytes were supplied by Biopredic in 24-well plates.
The samples of incubation medium after addition of the test compound were taken at times t=0, 1, 2, 4, 6 and 24 hours.

For a further series, the target named is CXCR2 receptor (Homo sapiens (Human), UniProt P25025). As to the kind of experiment: β-arrestin recruitment test, PathHunter HEK293-CXCR2 cells stimulated with CXCL8. It is filed as cell-based. The following applies: inhibition of CXCL8 (10 nM) induced β-arrestin 2 recruitment; *9999 signifies not active. As to the method: (§1) The in vitro affinity of the compounds of the present invention for the CXCR1 and CXCR2 receptors was determined on a functional test of the β-arrestin recruitment after receptor activation type.
Chain of CXCR2 receptor (P25025 whole entry): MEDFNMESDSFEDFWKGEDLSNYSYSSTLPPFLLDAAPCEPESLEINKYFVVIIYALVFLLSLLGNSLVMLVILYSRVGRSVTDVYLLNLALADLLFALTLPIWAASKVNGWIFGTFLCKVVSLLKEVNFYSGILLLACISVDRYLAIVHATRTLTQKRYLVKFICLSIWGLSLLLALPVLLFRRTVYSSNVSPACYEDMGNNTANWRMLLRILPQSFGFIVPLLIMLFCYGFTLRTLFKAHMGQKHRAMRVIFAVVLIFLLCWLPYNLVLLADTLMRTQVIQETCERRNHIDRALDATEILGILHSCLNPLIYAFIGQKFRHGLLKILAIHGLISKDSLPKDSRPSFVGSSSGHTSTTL
(§2) β-Arrestin recruitment test: “PathHunter HEK293-CXCR2” or “U2OS hCXCR1 β-arrestin” cells (DiscoveRx Corporation) were seeded overnight at 10 000 cells/well (384-well format) in 20 μl of Opti MEM I medium. A preincubation with the antagonist or the vehicle for 30 min at 37° C. and 5% CO2 was followed by 60 minutes of stimulation with CXCL8 at 37° C. and 5% CO2. The cells were then placed at ambient temperature for 30 minutes. The PathHunter detection reagent (DiscoveRx Corporation) was added. […] The data were analyzed by means of a non-linear curve procedure using the XLFit4 exploitation software (IDBS) and the IC50 values were determined.
(Arrestin recruitment assays detect the binding of arrestin to an activated receptor.)

Series [2] in a line: Metabolic stabilities in hepatic microsomes. The following applies: hepatic microsomes 0.5 mg/ml protein, compound 1 μM, sampling up to 60 minutes; for half-life at 1 μM: hepatic microsomes, pH 7.4, Half-life time (min).
Experimental: Hepatic microsomes (Becton Dickinson) were incubated at a protein concentration of 0.5 mg/ml in the reaction medium.
The reaction medium of the microsomes was composed of phosphate buffer, pH: 7.4 at 100 mM, of MgCl2 at 100 mM (50/50), of an ATP-generating system composed of a mixture of nicotinamide adenine diphosphate (NADP), of glucose-6-phosphate (G6P) at 1 mg/ml and of glucose-6-phosphate dehydrogenase (G6PDH) at 4 U/ml. The compounds were tested at 1 μM (0.1% DMSO).
The samples of incubation medium after addition of the microsomes were taken at times 5, 10, 15, 30 and 60 minutes. At each time, the metabolic reaction was stopped by adding methanol (1 volume incubation medium/3 volumes of methanol). The disappearance of the parent product was measured by LC/MS/MS analysis. The time for which 50% of parent product disappeared (T1/2) was calculated from the kinetics of disappearance of the parent product as a function of time.
For a further series, the target named is CCR8 (Homo sapiens (Human), UniProt P51685). As to the kind of experiment: Calcium flux on Chem-1 cells expressing the chemokine receptor (FLIPR TETRA), antagonist mode. The format is cell-based. The conditions noted are these: antagonist activity, reference agonist at AC80.
Chain of CCR8 (P51685 whole entry): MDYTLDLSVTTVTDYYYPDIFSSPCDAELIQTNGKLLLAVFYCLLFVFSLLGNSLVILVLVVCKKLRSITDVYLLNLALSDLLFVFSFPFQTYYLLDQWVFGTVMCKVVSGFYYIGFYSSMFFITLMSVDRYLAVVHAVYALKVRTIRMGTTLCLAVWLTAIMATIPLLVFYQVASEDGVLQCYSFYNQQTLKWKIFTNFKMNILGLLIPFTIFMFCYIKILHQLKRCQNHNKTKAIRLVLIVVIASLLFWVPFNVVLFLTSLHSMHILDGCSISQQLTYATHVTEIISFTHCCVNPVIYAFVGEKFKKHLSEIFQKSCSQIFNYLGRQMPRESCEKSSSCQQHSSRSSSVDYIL
The target in the next series is FPR1 (Homo sapiens (Human), UniProt P21462). As to the kind of experiment: Calcium flux on Chem-1 cells expressing the receptor (FLIPR TETRA), antagonist mode. It is filed as cell-based. The following applies: antagonist activity, reference agonist at AC80.
Chain of FPR1 (P21462 whole entry): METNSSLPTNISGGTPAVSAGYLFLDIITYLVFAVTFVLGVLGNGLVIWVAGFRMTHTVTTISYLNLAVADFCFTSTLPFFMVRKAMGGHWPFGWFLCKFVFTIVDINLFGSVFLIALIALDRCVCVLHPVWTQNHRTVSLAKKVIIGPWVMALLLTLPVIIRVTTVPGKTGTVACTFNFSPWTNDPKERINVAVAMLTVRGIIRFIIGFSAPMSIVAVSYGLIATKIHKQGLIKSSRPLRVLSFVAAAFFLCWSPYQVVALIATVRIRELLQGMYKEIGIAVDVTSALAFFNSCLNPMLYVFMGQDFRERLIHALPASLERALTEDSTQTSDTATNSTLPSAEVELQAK
The target in a further series is CCR7 (Homo sapiens (Human), UniProt P32248). As to the kind of experiment: Calcium flux on Chem-1 cells expressing the chemokine receptor (FLIPR TETRA), antagonist mode. The format is cell-based. The conditions noted are these: antagonist activity, reference agonist at AC80.
Chain of CCR7 (P32248 25-378): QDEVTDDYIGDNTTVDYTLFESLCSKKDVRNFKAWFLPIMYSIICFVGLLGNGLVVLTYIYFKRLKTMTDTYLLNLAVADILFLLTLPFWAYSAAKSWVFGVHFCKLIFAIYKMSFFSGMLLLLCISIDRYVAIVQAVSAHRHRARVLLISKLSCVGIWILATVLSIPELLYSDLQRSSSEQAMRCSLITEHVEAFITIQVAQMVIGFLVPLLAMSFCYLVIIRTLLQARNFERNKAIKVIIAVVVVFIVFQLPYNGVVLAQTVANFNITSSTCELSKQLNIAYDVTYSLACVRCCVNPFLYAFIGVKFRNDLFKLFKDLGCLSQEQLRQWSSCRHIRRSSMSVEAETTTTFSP
The next series has as its target CCR4 (Homo sapiens (Human), UniProt P51679). Described as above.
A further series addresses CXCR1 receptor (Homo sapiens (Human), UniProt P25024). As to the kind of experiment: β-arrestin recruitment test, U2OS hCXCR1 β-arrestin cells stimulated with CXCL8. It is filed as cell-based. The conditions noted are these: inhibition of CXCL8 (10 nM) induced β-arrestin 2 recruitment; *9999 signifies not active. The protocol:
as §1, §2

For series [3], the system named is panel of 20 chemokine receptors. As to the kind of experiment: Receptor profiling on a panel of 20 chemokine receptors (calcium flux). The conditions noted are these: result in words.
Experimental: (§3) Measurement of calcium flux on cells: The experiments were carried out on the FLIPR TETRA® platform from Molecular Devices.
(§4) Each cell line expressing a chemokine receptor was established on the basis of the Chem-1 cell stably expressing the recombinant form of the chemokine receptor and also an associated G protein, with the aim of coupling the receptor to the calcium signalling pathway.
Series [4] deals with receptors of CXCR1 and CXCR2 type. The following applies: pseudo-irreversible dissociation, literature value; cited from earlier work.

Chain of CCR4 (P51679 whole entry): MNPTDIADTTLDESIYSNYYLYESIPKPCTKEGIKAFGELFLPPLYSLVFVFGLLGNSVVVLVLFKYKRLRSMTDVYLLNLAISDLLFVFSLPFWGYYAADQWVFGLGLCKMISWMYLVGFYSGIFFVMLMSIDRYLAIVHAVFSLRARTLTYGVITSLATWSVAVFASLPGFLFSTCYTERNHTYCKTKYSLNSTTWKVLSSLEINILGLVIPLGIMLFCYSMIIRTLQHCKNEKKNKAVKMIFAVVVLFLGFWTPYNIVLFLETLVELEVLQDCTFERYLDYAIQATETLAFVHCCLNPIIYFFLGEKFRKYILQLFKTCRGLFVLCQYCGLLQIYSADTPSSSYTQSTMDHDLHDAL
Chain of CXCR1 receptor (P25024 whole entry): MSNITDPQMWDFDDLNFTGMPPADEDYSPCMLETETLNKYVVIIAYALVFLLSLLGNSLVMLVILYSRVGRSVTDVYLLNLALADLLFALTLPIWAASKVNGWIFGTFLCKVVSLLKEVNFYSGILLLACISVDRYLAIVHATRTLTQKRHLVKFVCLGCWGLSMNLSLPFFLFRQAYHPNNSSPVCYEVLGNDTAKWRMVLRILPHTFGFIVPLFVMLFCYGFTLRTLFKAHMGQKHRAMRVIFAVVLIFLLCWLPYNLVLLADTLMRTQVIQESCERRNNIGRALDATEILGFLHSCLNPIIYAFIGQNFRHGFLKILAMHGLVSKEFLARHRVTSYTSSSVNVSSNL
Chain of CCR6 (P51684 whole entry): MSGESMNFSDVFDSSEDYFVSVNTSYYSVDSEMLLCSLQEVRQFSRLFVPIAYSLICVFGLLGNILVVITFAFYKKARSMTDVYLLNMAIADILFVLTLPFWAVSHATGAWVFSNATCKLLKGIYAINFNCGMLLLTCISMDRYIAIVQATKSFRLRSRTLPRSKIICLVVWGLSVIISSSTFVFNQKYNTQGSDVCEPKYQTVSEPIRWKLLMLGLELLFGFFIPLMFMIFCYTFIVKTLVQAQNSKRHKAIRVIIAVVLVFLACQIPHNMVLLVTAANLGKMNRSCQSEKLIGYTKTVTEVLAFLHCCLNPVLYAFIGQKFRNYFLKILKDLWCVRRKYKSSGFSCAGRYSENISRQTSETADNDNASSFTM
Experimental for CCR4: as §3, §4
(§5) 21 receptors belonging to the chemokine receptor family (CCRs and CXCRs) were analyzed.
Experimental for CCR6: as §3, §4, §5
Experimental for CCR7: as §3, §4, §5
Experimental for CCR8: as §3, §4, §5
Experimental for CXCR3: as §3, §4, §5
Experimental for FPR1: as §3, §4

Usually IC50 stands for the concentration at which inhibition is half-maximal. By half-life is commonly meant the time in which the quantity being followed falls by half. For the compound `Cc1ccc(C(Nc2c(Nc3cccc(C(=O)N(C)C)c3O)c(=O)c2=O)C2(C)CCCO2)o1` (single isomer, unassigned) [1 (diastereoisomer 2), 2-hydroxy-N,N-dimethyl-3-(2-{[(5-methylfuran-2-yl)-(2-methyltetrahydrofuran-2-yl)methyl]amino}-3,4-dioxo-cyclobut-1-enylamino)benzamide], the half-maximal inhibitory concentration (IC50) on CXCR3 amounted to 0.055 µM; at CCR6, 0.0022 µM; on CXCR2 receptor, 94 nM. The “Half-life time” value in series [1] is listed as 539 min. Besides, the half-life at 1 μM in series [2] worked out at 27 min.

In the case of `Cc1ccc(C(Nc2c(Nc3cccc(C(=O)N(C)C)c3O)c(=O)c2=O)C2CCCS2)o1` (single isomer, unassigned) [2 (diastereoisomer 2), 2-Hydroxy-N,N-dimethyl-3-(2-{[(5-methylfuran-2-yl)-(tetrahydrothiophen-2-yl)methyl]amino}-3,4-dioxo-cyclobut-1-enylamino)benzamide], the IC50 is 0.62 µM at CCR8, 35 nM against CXCR2 receptor and 6.5 µM on FPR1. Further, the half-life at 1 μM in series [2] was 11 min.

As for `Cc1ccc(C(Nc2c(Nc3cccc(C(=O)N(C)C)c3O)c(=O)c2=O)C2(C)CCCO2)o1` (single isomer, unassigned) [Example 1 (Enantiomer 2 of diastereoisomer 2), 2-Hydroxy-N,N-dimethyl-3-(2-{[(5-methylfuran-2-yl)-(2-methyltetrahydrofuran-2-yl)methyl]amino}-3,4-dioxo-cyclobut-1-enylamino)benzamide], the 50% inhibitory concentration (IC50) on CXCR3 amounted to 0.0013 µM; at CCR6 it was 0.002 µM; at CCR7, 8.7 µM; at CCR4, 0.41 µM; against CXCR2 receptor it was 53 nM. Moreover, the half-life at 1 μM in series [1] turned out to be 300 min.

With `Cc1ccc(C(Nc2c(Nc3cccc(C(=O)N(C)C)c3O)c(=O)c2=O)C2CCCS2)o1` (single isomer, unassigned) [Example 2 (diastereoisomer 1), 2-Hydroxy-N,N-dimethyl-3-(2-{[(5-methylfuran-2-yl)-(tetrahydrothiophen-2-yl)methyl]amino}-3,4-dioxo-cyclobut-1-enylamino)benzamide], the results for the “Half-life time” value in [1] and in [2] were 106 min and 9 min, respectively. For the same compound, 135 nM corresponded to half-maximal inhibition against CXCR2 receptor (IC50).

For the compound `COC(=O)[C@H]1CCCN1C(=O)c1cccc(Nc2c(NC(c3ccc(C)o3)C3CCCS3)c(=O)c2=O)c1O` (single isomer, unassigned) [Example 6], the IC50 at CXCR3 worked out at 0.14 µM. In [2], the “Half-life time” value stood at 5 min.

`COC(=O)CN(C)C(=O)c1cccc(Nc2c(N[C@@H](c3ccc(C)o3)C3CCCS3)c(=O)c2=O)c1O` (single isomer, unassigned) [Example 19]: the IC50 on CXCR3 worked out at 0.51 µM; at CCR6 it was 0.011 µM; on CCR4, 0.0081 µM; on CXCR1 receptor, 42 nM; against CXCR2 receptor, 20 nM. The half-life at 1 μM in series [1] is 214 min; in [2], 8 min.

As for `COC(=O)[C@H]1CCCN1C(=O)c1cccc(Nc2c(NC(c3ccc(C)o3)C3CCCS3)c(=O)c2=O)c1O` (single isomer, unassigned) [Example 20], the half-maximal inhibitory concentration (IC50) turned out to be 0.18 µM at CXCR3 and 0.0072 µM on CCR4. Besides, the half-life at 1 μM in series [1] amounted to 211 min. For the same compound, the “Half-life time” value in series [2] is 17 min.

On to `Cc1ccc([C@H](Nc2c(Nc3cccc(C(=O)N(C)CC(F)(F)F)c3O)c(=O)c2=O)C2CCCS2)o1` (single isomer, unassigned; (-)) [Example 18], for which the IC50 on CXCR3 came to 0.45 µM; at CCR4 it was 0.097 µM; against CXCR1 receptor, 36 nM; at CXCR2 receptor, 15 nM. For the same compound, the figures for the half-life at 1 μM in [1] and in [2] were 82 min and 15 min, respectively.

Turning to `Cc1ccc(C(Nc2c(Nc3ccc(Cl)c(S(=O)(=O)N4CCN(C)CC4)c3O)c(=O)c2=O)C2CCCS2)o1` (single isomer, unassigned; (-)) [Example 22, (−)-3-[4-chloro-2-hydroxy-3-(4-methylpiperazine-1-sulfonyl)phenylamino]-4-{[(5-methylfuran-2-yl)-(tetrahydrothiophen-2-yl)methyl]amino}cyclobut-3-ene-1,2-dione], the IC50 on CXCR3 stood at 0.15 µM; on CCR4 it was 0.0094 µM; against CXCR1 receptor, 30 nM; against CXCR2 receptor it was 17 nM. The figures for the half-life at 1 μM in series [1] and in [2] were 49 min and 7 min, respectively.

Turning to `CC[C@@H](Nc1c(Nc2cccc(C(=O)N(C)C)c2O)c(=O)c1=O)c1ccc(C)o1` [SCH-527123], the “activity on the chemokine receptors of the panel (CCR4, CCR6, CCR7, CCR8, CXCR3, FPR1)” value in series [3] was “inactive or not very active at all”. The dissociation time entry in series [4] is reported as “about 22 h”.

Turning to “Methyl (S)-1[2-fluoro-3-(2-{[(R,S)-(5-methylfuran-2-yl)((S,R)-tetrahydrothiophen-2-yl)methyl]amino}-3,4-dioxocyclobut-1-enylamino)benzoyl]pyrrolidine-2-carboxylate [Example 3 (pair of enantiomers 1 and 2)]”, the “Half-life time” value came to 141 min in [1] and 3 min in [2]. Moreover, the IC50 against CXCR1 receptor was 812 nM; at CXCR2 receptor it was 221 nM.
